Experimental data taken from US12139477B2, “Compounds, salts thereof and methods for treatment of diseases” (ACADIA PHARMACEUTICALS INC., priority 2017, dated 2024).

Each compound was assayed against 5HT2A (Homo sapiens, UniProt P28223) (assay: Receptor Selection and Amplification (R-SAT) functional assay). Conditions: NIH3T3 cells; Ki from IC50 by Cheng and Prussoff; read-out: 5-HT2a (pKi) (R-SAT) (converted).
Type: cell-based
Parameters: expressed in transfected cells; host or cells: NIH3T3 cells, pSI mammalian expression vector
Excerpt: Receptor Selection and Amplification (R-SAT) Assays. […] The IC50 determined in the RSAT assay was converted into a Ki value using the method of Cheng and Prussoff, Biochem Pharmacol., 1973 Dec. 1; 22(23):3099-108. pKi is the negative of the log(Ki).

Chain of 5HT2A (P28223 whole entry): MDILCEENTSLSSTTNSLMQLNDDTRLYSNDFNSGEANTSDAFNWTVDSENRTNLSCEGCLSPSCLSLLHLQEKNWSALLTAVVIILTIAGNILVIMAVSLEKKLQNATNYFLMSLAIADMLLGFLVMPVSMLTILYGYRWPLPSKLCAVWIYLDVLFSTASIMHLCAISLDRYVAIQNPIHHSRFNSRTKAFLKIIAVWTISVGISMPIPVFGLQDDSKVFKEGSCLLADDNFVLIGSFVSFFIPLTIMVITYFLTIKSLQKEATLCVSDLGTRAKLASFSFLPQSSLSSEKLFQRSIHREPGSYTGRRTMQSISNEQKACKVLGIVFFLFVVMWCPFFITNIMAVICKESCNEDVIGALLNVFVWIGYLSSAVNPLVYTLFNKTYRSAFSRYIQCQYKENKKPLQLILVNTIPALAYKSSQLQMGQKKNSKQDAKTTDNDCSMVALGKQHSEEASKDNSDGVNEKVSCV

Row | SMILES | Ki
1 | COc1ccc(CNC(=O)N(Cc2ccc(F)cc2)[C@H]2CCN(C)C[C@H]2F)c(OC)c1 (racemic) [Example 1, 1-[(2,4-dimethoxyphenyl)methyl]-3-[(3R,4S)-3-fluoro-1-methylpiperidin-4-yl]-3-[(4-fluorophenyl)methyl]urea; Trifluoroacetic Acid (1a) and 1-[(2,4-dimethoxyphenyl)methyl]-3-[(3S,4R)-3-fluoro-1-methylpiperidin-4-yl]-3-[(4-fluorophenyl)methyl]urea; Trifluoroacetic Acid (1b)] | 25.1 nM
2 | CN1CC[C@@H](N(Cc2ccc(F)cc2F)C(=O)NCc2ccc(OC3CC3)cc2)[C@@H](F)C1 (racemic) [Example 117, 1-[(4-cyclopropoxyphenyl)methyl]-3-[(2,4-difluorophenyl)methyl]-3-[(3S,4R)-3-fluoro-1-methylpiperidin-4-yl]urea and 1-[(4-cyclopropoxyphenyl)methyl]-3-[(2,4-difluorophenyl)methyl]-3-[(3R,4S)-3-fluoro-1-methylpiperidin-4-yl]urea] | 0.398 nM
3 | CN1CCC(N(Cc2ccc(F)cc2F)C(=O)NCc2ccc3ncoc3c2)CC1 [Example 29] | 10 nM
4 | CN1CCC(N(Cc2ccc(F)cc2F)C(=O)NCc2ccc3ocnc3c2)CC1 [Example 30] | 63.1 nM
5 | CN1CCC(N(Cc2ccc(F)cc2F)C(=O)NCc2ccc3c(ccn3C)c2)CC1 [Example 31] | 6.31 nM
6 | CN1CCC(N(Cc2ccc(F)cc2F)C(=O)NCc2ccc3c(c2)N(C)CCO3)CC1 [Example 32] | 7.94 nM
7 | O=C(O)C(F)(F)F.[2H]C([2H])([2H])C(Oc1ccc(CNC(=O)N(Cc2ccc(F)cc2F)C2CCN(C)CC2)cc1)(C([2H])([2H])[2H])C([2H])([2H])[2H] [Example 46] | 0.794 nM
8 | C[C@H](c1ccc(F)cc1F)N(C(=O)NCc1ccc(OC2CC2)cc1)C1CCN(C)CC1 [Example 47] | 126 nM
9 | COc1ccc(CNC(=O)N(Cc2ccc(F)cc2F)C2CCN(C)CC2)c(C(F)(F)F)c1 [Example 53] | 25.1 nM
10 | COc1c(F)ccc(CNC(=O)N(Cc2ccc(F)cc2F)C2CCN(C)CC2)c1F [Example 54] | 7.94 nM
11 | CN1CCC(N(Cc2ccc(F)cc2F)C(=O)NCc2cccc3c2CC(C)(C)O3)CC1 [Example 58] | 158 nM
12 | CN1CCC(N(Cc2ccc(F)cc2F)C(=O)NCc2ccc3c(c2)OC(C)(C)C3)CC1 [Example 59] | 15.8 nM
13 | CC(C)Oc1ccc(CNC(=O)N(Cc2ccc(F)cc2F)[C@@H]2CCN3CCC[C@H]3C2)cc1 [Example 80, 1-[(7R,8aS)-octahydroindolizin-7-yl]-1-[(2,4-difluorophenyl)methyl]-3-{[4-(propan-2-yloxy)phenyl]methyl}urea; Trifluoroacetic Acid] | 2.51 nM
14 | COc1cc(F)c(F)cc1CN(C(=O)NCc1ccc(OC(C)C)cc1)C1CCNCC1 [Example 83, 3-[(4,5-difluoro-2-methoxyphenyl)methyl]-3-(piperidin-4-yl)-1-{[4-(propan-2-yloxy)phenyl]methyl}urea; Trifluoroacetic Acid] | 158 nM
15 | CC(C)Oc1ccc(CNC(=O)N(Cc2ccc(F)cc2F)[C@H]2C[C@H]3CC[C@@H](C2)N3C)cc1 [Example 84, 3-[(2,4-difluorophenyl)methyl]-3-[(1R,3R,5S)-8-methyl-8-azabicyclo[3.2.1]octan-3-yl]-1-{[4-(propan-2-yloxy)phenyl]methyl}urea; Trifluoroacetic Acid] | 50.1 nM
16 | CC(C)C(C)(O)COc1ccc(CNC(=O)N(Cc2ccc(F)cc2F)C2CCN(C)CC2)cc1 (stereo not drawn) [Example 87, 1-[(2,4-difluorophenyl)methyl]-3-{[4-(2-hydroxy-2,3-dimethylbutoxy)phenyl]methyl}-1-(1-methylpiperidin-4-yl)urea; Trifluoroacetic Acid] | 10 nM
17 | CN1CCC(N(Cc2ccc(F)cc2F)C(=O)NCc2ccc(COCCO)c(F)c2)CC1 [Example 88, 1-[(2,4-difluorophenyl)methyl]-3-({3-fluoro-4-[(2-hydroxyethoxy)methyl]phenyl}methyl)-1-(1-methylpiperidin-4-yl)urea; Trifluoroacetic Acid] | 63.1 nM
18 | CN1CCC(N(Cc2ccc(F)cc2F)C(=O)NCc2ccc3[nH]ncc3c2)CC1 [Example 93, 1-[(2,4-difluorophenyl)methyl]-3-[(1H-indazol-5-yl)methyl]-1-(1-methylpiperidin-4-yl)urea; Trifluoroacetic Acid] | 39.8 nM
19 | CN1CCC(N(Cc2ccc(F)cc2F)C(=O)NCc2ccc([N+](=O)[O-])cc2F)CC1 [Example 97, 1-[(2,4-difluorophenyl)methyl]-3-[(2-fluoro-4-nitrophenyl)methyl]-1-(1-methylpiperidin-4-yl)urea; Trifluoroacetic Acid] | 39.8 nM
20 | CN1CCC(N(Cc2ccc(F)cc2F)C(=O)NCc2ccc(F)cc2OC(F)(F)F)CC1 [Example 99, 1-[(2,4-difluorophenyl)methyl]-3-{[4-fluoro-2-(trifluoromethoxy)phenyl]methyl}-1-(1-methylpiperidin-4-yl)urea; Trifluoroacetic Acid] | 79.4 nM
21 | CN1CCC(N(Cc2ccc(F)cc2)C(=O)NCc2ccc(F)cc2F)CC1 [Example 100, 3-[(2,4-difluorophenyl)methyl]-1-[(4-fluorophenyl)methyl]-1-(1-methylpiperidin-4-yl)urea; Trifluoroacetic Acid] | 20 nM

Next, values leading:

Row | Ki | SMILES
22 | 100 nM | CN1CCC(N(Cc2ccc(F)cc2F)C(=O)NCc2ccc([C@H](O)CO)cc2)CC1 (racemic) [Example 94, 1-[(2,4-difluorophenyl)methyl]-3-({4-[(1R)-1,2-dihydroxyethyl]phenyl}methyl)-1-(1-methylpiperidin-4-yl)urea; Trifluoroacetic Acid and 1-[(2,4-difluorophenyl)methyl]-3-({4-[(1S)-1,2-dihydroxyethyl]phenyl}methyl)-1-(1-methylpiperidin-4-yl)urea; Trifluoroacetic Acid]
23 | 3160 nM | COc1ccc(CN(C(=O)NCc2ccc(OCC(C)C)cc2)C2CCN(C)CC2)c(OC)c1 [Example 2, 3-[(2,4-dimethoxyphenyl)methyl]-3-(1-methylpiperidin-4-yl)-1-{[4-(2-methylpropoxy)phenyl]methyl}urea]
24 | 63.1 nM | CC(C)COc1ccc(CNC(=O)N(Cc2ccc(F)cc2OCc2ccccc2)C2CCN(C)CC2)cc1 [Example 13b, 1-{[2-(benzyloxy)-4-fluorophenyl]methyl}-1-(1-methylpiperidin-4-yl)-3-{[4-(2-methylpropoxy)phenyl]methyl}urea]
25 | 100 nM | COc1ccc(CNC(=O)N(Cc2ccc(F)cc2F)C2CCN(C)CC2)cc1C#N [Example 48]
26 | 6.31 nM | CN1CCC(N(Cc2ccc(F)cc2F)C(=O)NCc2ccc(F)cc2)CC1 [Example 49]
27 | 100 nM | COc1ccc(CNC(=O)N(Cc2ccc(F)cc2F)C2CCN(C)CC2)c(OC)c1 [Example 50]
28 | 25.1 nM | COc1ccc(CNC(=O)N(Cc2ccc(F)cc2F)C2CCN(C)CC2)c(Cl)c1 [Example 51]
29 | 79.4 nM | CC(C)COc1ccc(CNC(=O)N(Cc2cc(F)ccc2F)C2CCN(C)CC2)cc1 [Example 63]
30 | 79.4 nM | CC(C)COc1ccc(CNC(=O)N(Cc2ccc(C(F)(F)F)cc2Cl)C2CCN(C)CC2)cc1 [Example 67]
31 | 20 nM | CC(C)COc1ccc(CNC(=O)N(Cc2ccc(C(F)(F)F)cc2F)C2CCN(C)CC2)cc1 [Example 68]
32 | 631 nM | CC(C)COc1ccc(CNC(=O)N(Cc2ccc(F)cc2N(C)C)C2CCN(C)CC2)cc1 [Example 69]
33 | 50.1 nM | CC(C)COc1ccc(CNC(=O)N(Cc2cc(F)c(F)cc2F)C2CCN(C)CC2)cc1 [Example 70]
34 | 12.6 nM | CC(C)COc1ccc(CNC(=O)N(Cc2c(F)cc(Cl)cc2F)C2CCN(C)CC2)cc1 [Example 71]
35 | 15.8 nM | CC(C)COc1ccc(CNC(=O)N(Cc2c(F)cccc2F)C2CCN(C)CC2)cc1 [Example 72]
36 | 6.31 nM | [2H]C([2H])([2H])Oc1ccc(CNC(=O)N(Cc2ccc(F)cc2F)C2CCN(C)CC2)cc1 [Example 73, 1-[(2,4-difluorophenyl)methyl]-3-{[4-(^2H3)methoxyphenyl]methyl}-1-(1-methylpiperidin-4-yl)urea]
37 | 39.8 nM | COc1cc(OC(C)C)ccc1CNC(=O)N(Cc1ccc(F)cc1F)C1CCN(C)CC1 [Example 74, 1-[(2,4-difluorophenyl)methyl]-3-{[2-methoxy-4-(propan-2-yloxy)phenyl]methyl}-1-(1-methylpiperidin-4-yl)urea]
38 | 79.4 nM | CN1CCC(N(Cc2ccc(F)cc2F)C(=O)NCc2ccc3[nH]cnc3c2)CC1 [Example 77, 3-[(1H-1,3-benzodiazol-5-yl)methyl]-1-[(2,4-difluorophenyl)methyl]-1-(1-methylpiperidin-4-yl)urea; Trifluoroacetic Acid]
39 | 6.31 nM | CC(C)Oc1ccc(CNC(=O)N(Cc2ccc(F)cc2F)C2CCCN(C)CC2)cc1 (stereo not drawn) [Example 78, 1-[(2,4-difluorophenyl)methyl]-1-(1-methylazepan-4-yl)-3-{[4-(propan-2-yloxy)phenyl]methyl}urea; Trifluoroacetic Acid]
40 | 12.6 nM | CC(C)COc1ccc(CNC(=O)N(Cc2ccc(C(F)(F)F)cc2O)C2CCN(C)CC2)cc1 [Example 90, 1-{[2-hydroxy-4-(trifluoromethyl)phenyl]methyl}-1-(1-methylpiperidin-4-yl)-3-{[4-(2-methylpropoxy)phenyl]methyl}urea; Trifluoroacetic Acid]
41 | 15.8 nM | COc1cc(F)ccc1CN(C(=O)NCc1ccc(OCC(C)C)cc1)C1CCN(C)CC1 [Example 91, 1-[(4-fluoro-2-methoxyphenyl)methyl]-1-(1-methylpiperidin-4-yl)-3-{[4-(2-methylpropoxy)phenyl]methyl}urea; Trifluoroacetic Acid]
42 | 10 nM | COCCCOc1ccc(CNC(=O)N(Cc2ccc(F)cc2F)C2CCN(C)CC2)cc1 [Example 96, 1-[(2,4-difluorophenyl)methyl]-3-{[4-(3-methoxypropoxy)phenyl]methyl}-1-(1-methylpiperidin-4-yl)urea; Trifluoroacetic Acid]
